Source: EP0006845A1, “Pharmaceutical composition comprising a 5-aroyl-1-C1-5 alkyl-pyrrole-2-acetic acid compound and acetaminophen or acetylsalicylic acid” (McNeilab, Inc., priority 1978, dated 1980)

What was measured:
adjuvant arthritic rats [1] = experiment: adjuvant arthritis test, evaluation of paw volume of the non-injected hind paw; assay type: in vivo, female Wistar, Lewis rats; conditions: for inhibition at 50 mg/kg: Acetaminophen 50 mg/kg/day alone; for inhibition at 200 mg/kg: Acetaminophen 200 mg/kg/day alone; for inhibition at 800 mg/kg: Acetaminophen 800 mg/kg/day alone; for inhibition at 75 mg/kg: Aspirin 75 mg/kg/day alone; for inhibition at 150 mg/kg: Aspirin 150 mg/kg/day alone; for inhibition at 300 mg/kg: Aspirin 300 mg/kg/day alone
From the text: (§1) The efficacy of the novel combination of this invention in inhibiting inflammation and osteogenic degeneration is particularly seen in the adjuvant arthritis test. […] The adjuvant arthritis test, a test in which adjuvant arthritis which results both in inflammation and osteogenic changes is induced by Mycobacterium butvricum and in which the effect of the test compounds on each effect can be Determined, is considered to be .most useful for evaluation of compounds which may be suitable for the treatment of rheumatoid arthritis and other arthritic diseases. The test procedure, in which the effect on inflammation is determined by paw volume changes and the effect on osteogenic changes is determined by microscopic observation, is described by Wong et al, in J. Pharmacol.Exp.Ther. 185, 127-138, 1973, and is employed in the present determination of the potentiation of the antiarthritic properties of 5-aroyl-l-loweralkyl-pyrrole-2-acetic acid derivatives by aspirin or acetaminophen.
(§2) Briefly, in this procedure, adjuvant arthritis is induced in female Wistar, Lewis rats (Charles River Breeding Laboratories. Inc., Wiimington, Mass.) weighing 160-190 gm by a single subcutaneous injection of 0.75 mg Mycobacterium butyricum (Difco) into the left hind paw. The non-injected hind paw remains a normal size for the first seven days. Swelling begins to appear in the non-injected paw of the first rats on Day 8. Using the paw volume determination technique (a technique in which rat paws are dippedin mercury to the hairline and the volume of displacement determined by a modified Van Arman mercury displacement method as described in the aforementioned paper of Wong et al), the time progress curve of volume changes in the non-injected (contralateral) paw is followed. […] The mean onset time for 100 rats is found to be 11.6 days with a standard deviation of 1.9 days and the frequency of onset time values distributed normally between Days 8 and 19. Thus, determinations of antiarthritic activity are made in the period Day 11 to Day 28.
(§3) For determination of anti-inflammatory properties two different evaluations are made: (a) the evaluation of paw volume during the Phase II and Phase III periods and, (b) the evaluation of osteogenic (bone) degenration during the Phase IV period.
For evaluation of paw volume, adjuvant arthritic rats with early but significant signs of arthritis in the contralateral paw are selected on Day 11 and randomly assigned to the various groups of 10 animals in each group. All test -animals are dosed-daily (per os) with the test compound, preferably as sodium salt, or in saline for 17 days (Days 11 to 27 inclusive). Control animals are dosed with an equivalent volume of saline. The paw volumes of the non-injected paws are determined initially on Day 11 and again on Days 15, 18, 22, 25, and 28. The paw volumes are then compared with normal paw volumes of adjuvant arthitic rats previously determined from a reference curve relating normal paw volume to body weight. The volume of each individual rat which is greater than the normal volume is utilized in the analysis of the data. Values for drug treated animals are expressed as a percent inhibition of the paw volume change relative to the mean value for saline controls. Data is evaluated statistically and ED50 values with 95 percent confidence limits are calculated. The method for statistical analysis is described in detail in the aforementioned paper of Wong et al. The term "ED50" refers to the dose of drug required to produce 50 percent antagonism of the paw volume changes observed in the saline treated adjuvant arthritis controls. Suppression of paw volume changes reflects anti-inflammatory and antiarthritic activity of a test drug.

adjuvant arthritic rats [2] = experiment: adjuvant arthritis test, evaluation of bone degeneration (osteogenic changes) in the non-injected hind paw; assay type: in vivo, female Wistar, Lewis rats; conditions: for ED50: drug alone, suppression of osteogenic changes, data from several experiments pooled, read-out: ED50 and 95 percent C.L.
From the text: as §1, §2, §3
For evaluation of bone degenerations, normal and adjuvant arthritic rats are sacrificed under C02, after the paw volume measurements have been completed on Day 28. The hind legs are removed above the knees and skinned and the soft tissues dissected away with care to avoid injury to bone and articular structures. The leg bones are then immersed in 2 percent potassium hydroxide solution for approximately four to five days until the remaining soft tissues becomes properly macerated and/or transparent, and the bones are fully visible. The leg bones are stained with Alizarin Red (0.01 percent in 2 percent KOH) for eight hours, and then processed through increasing concentrations of glycerol in water (20, 40, 60, 80 and 100 percent) for purposes of clearing the tissues for microscopic observation. The distal end of the tibiae, the tarsals, metatarsals, phalanges, and sesamoids are evaluated under a Stereozoom Microscope (a special type of dissecting microscope, product of Bausch and Lomb).
Osteogenic changes for each bone (in 31 bone categories) in the non-injected hind paw are graded on a scale of from 0 to 10 (increasing numerical value corresponding to increasing severity of bone degeneration). A total bone degeneration score is obtained (maximum score/paw = 310 points) and then expressed as a percent score. The mean percent score (95 percent confidence limits) for saline control groups from 26 experiments (184 animals) is found to be 53.4 (50.9-55.9). Percent score values for drug treated animals are expressed as a percent inhibition relative to the mean for the saline control group. Data is evaluated statistically and ED50 values with 95 percent confidence limits are calculated.

[3] = Rattus norvegicus, 672 h, Table IX, Day 28, read-out: Percent Inhibition ± S.E. (Day 28)
[4] = Rattus norvegicus, read-out: Percent Inhibition of Paw Volume ± S.E.
[5] = Rattus norvegicus, 672 h, Day 28, read-out: Percent Inhibition ± S.E. (Day 28)
[6] = Rattus norvegicus, 672 h, Table VIII, Day 28, read-out: Percent Inhibition ± S.E. (Day 28)

Cc1cc(CC(=O)O)n(C)c1C(=O)c1ccc(Cl)cc1 [1,4-dimethyl-5-p-chlorobenzoyl-pyrrole-2-acetic acid]
ED50 (adjuvant arthritic rats [1]; Rattus norvegicus, 672 h, Table VII, ED50 of the pyrrole compound without acetaminophen, Day 28, read-out: ED50): 0.4 mg/kg
inhibition at 0.11 mg/kg/day (adjuvant arthritic rats [1]; Rattus norvegicus, 672 h, Table VII, pyrrole compound 0.11 mg/kg/day alone, Day 28, read-out: Percent Inhibition ± S.E. (Day 28)): 27.4 ± 10.1%
inhibition at 0.33 mg/kg/day (adjuvant arthritic rats [1]; Rattus norvegicus, 672 h, Table VII, pyrrole compound 0.33 mg/kg/day alone, Day 28, read-out: Percent Inhibition ± S.E. (Day 28)): 45 ± 6%
inhibition at 1 mg/kg/day (adjuvant arthritic rats [1]; Rattus norvegicus, 672 h, Table VII, pyrrole compound 1.0 mg/kg/day alone, Day 28, read-out: Percent Inhibition ± S.E. (Day 28)): 68 ± 7.8%
ED50 (adjuvant arthritic rats [1]; Rattus norvegicus, 672 h, Table VIII, ED50 of the pyrrole compound without Aspirin, Day 28, read-out: ED50): 0.728 mg/kg
inhibition at 0.125 mg/kg/day (adjuvant arthritic rats [1]; Rattus norvegicus, 672 h, Table VIII, pyrrole compound 0.125 mg/kg/day alone, Day 28, read-out: Percent Inhibition ± S.E. (Day 28)): 17.5 ± 7.5%
inhibition at 0.5 mg/kg/day (adjuvant arthritic rats [1]; Rattus norvegicus, 672 h, Table VIII, pyrrole compound 0.5 mg/kg/day alone, Day 28, read-out: Percent Inhibition ± S.E. (Day 28)): 43.8 ± 11.8%
inhibition at 2 mg/kg/day (adjuvant arthritic rats [1]; Rattus norvegicus, 672 h, Table VIII, pyrrole compound 2.0 mg/kg/day alone, Day 28, read-out: Percent Inhibition ± S.E. (Day 28)): 68.2 ± 5.3%

Cn1c(CC(=O)O)cc(Cl)c1C(=O)c1ccc(Cl)cc1 [4-chloro-5-p-chlorobenzoyl-1-nethyl-pyrrole-2-acetic acid]
ED50 (adjuvant arthritic rats [1]; Rattus norvegicus, 672 h, Table IX, ED50 of the pyrrole compound without acetaminophen, Day 28, read-out: ED50): 0.054 mg/kg
inhibition at 0.02 mg/kg/day (adjuvant arthritic rats [1]; Rattus norvegicus, 672 h, Table IX, pyrrole compound 0.02 mg/kg/day alone, Day 28, read-out: Percent Inhibition ± S.E. (Day 28)): 18.6 ± 11.7%
inhibition at 0.06 mg/kg/day (adjuvant arthritic rats [1]; Rattus norvegicus, 672 h, Table IX, pyrrole compound 0.06 mg/kg/day alone, Day 28, read-out: Percent Inhibition ± S.E. (Day 28)): 61.3 ± 5.3%
inhibition at 0.18 mg/kg/day (adjuvant arthritic rats [1]; Rattus norvegicus, 672 h, Table IX, pyrrole compound 0.18 mg/kg/day alone, Day 28, read-out: Percent Inhibition ± S.E. (Day 28)): 78.9 ± 8.7%

CC(=O)Nc1ccc(O)cc1 [Acetaminophen, acetaminophen]
inhibition at 50 mg/kg (adjuvant arthritic rats [1]; [3]): 7.6 ± 6.1%
inhibition at 200 mg/kg (adjuvant arthritic rats [1]; [3]): 29 ± 12.8%
inhibition at 800 mg/kg (adjuvant arthritic rats [1]; [3]): 75.3 ± 3.9%
inhibition at 50 mg/kg (adjuvant arthritic rats [1]; [4]): 0%
inhibition at 200 mg/kg (adjuvant arthritic rats [1]; [4]): 27.2 ± 15.5%
inhibition at 800 mg/kg (adjuvant arthritic rats [1]; [4]): 67.8 ± 5.7%
ED50 (adjuvant arthritic rats [1]; Rattus norvegicus, po, 672 h, drug given alone per os, Day 28, read-out: ED50 Values and 95 Percent C.L.): 576 mg/kg
minimal effective dose (adjuvant arthritic rats [1]; Rattus norvegicus, given alone, statistically significant difference (p<0.05) from saline treated controls, read-out: minimum effective dose (MED)): 320 mg/kg/day
Percent Inhibition ± S.E. (Day 28) (adjuvant arthritic rats [1]; Table VII, Dose of Acetaminophen 100 alone, Day 28): 2.7 ±17.4%
Percent Inhibition ± S.E. (Day 28) (adjuvant arthritic rats [1]; Table VII, Dose of Acetaminophen 200 alone, Day 28): 6.6 ± 11.4%
Percent Inhibition ± S.E. (Day 28) (adjuvant arthritic rats [1]; Table VII, Dose of Acetaminophen 400 alone, Day 28): 31.6 ± 6.1%
dose of acetaminophen required to suppress the tolmetin ED50 by 50 percent (adjuvant arthritic rats [1]; acetaminophen given with tolmetin): 35.3 (13.4-81.3) mg/kg/day
inhibition at 50 mg/kg (adjuvant arthritic rats [2]; Rattus norvegicus, Acetaminophen 50 mg/kg/day alone, read-out: Percent Inhibition of Bone Degeneration ± S.E.): 0%
inhibition at 200 mg/kg (adjuvant arthritic rats [2]; Rattus norvegicus, Acetaminophen 200 mg/kg/day alone, read-out: Percent Inhibition of Bone Degeneration ± S.E.): 12.6 ± 6.5%
inhibition at 800 mg/kg (adjuvant arthritic rats [2]; Rattus norvegicus, Acetaminophen 800 mg/kg/day alone, read-out: Percent Inhibition of Bone Degeneration ± S.E.): 32.9 ± 3.4%
ED50 (adjuvant arthritic rats [2]; Rattus norvegicus): 1670 mg/kg

CC(=O)Oc1ccccc1C(=O)O [Aspirin, acetylsalicylic acid]
dose of Aspirin required to suppress the tolmetin ED50 by 50 percent (adjuvant arthritic rats [1]; Aspirin given in combination with tolmetin): 83.6 (60.5 - 101) mg/kg/day
inhibition at 25 mg/kg (adjuvant arthritic rats [1]; Rattus norvegicus, 672 h, Aspirin 25 mg/kg/day alone, Day 28, read-out: Percent Inhibition ± S.E. (Day 28)): 16.4 ± 11.4%
inhibition at 75 mg/kg (adjuvant arthritic rats [1]; [5]): 39.6 ± 3.6%
inhibition at 100 mg/kg (adjuvant arthritic rats [1]; Rattus norvegicus, 672 h, Aspirin 100 mg/kg/day alone, Day 28, read-out: Percent Inhibition ± S.E. (Day 28)): 28.3 ± 8.2%
inhibition at 150 mg/kg (adjuvant arthritic rats [1]; [5]): 34.2 ± 6%
inhibition at 300 mg/kg (adjuvant arthritic rats [1]; [5]): 66.2 ± 6.3%
inhibition at 75 mg/kg (adjuvant arthritic rats [1]; [6]): 4.1 ± 14.4%
inhibition at 150 mg/kg (adjuvant arthritic rats [1]; [6]): 33.2 ± 7.6%
inhibition at 300 mg/kg (adjuvant arthritic rats [1]; [6]): 28.9 ± 9.4%
ED50 (adjuvant arthritic rats [1]; Rattus norvegicus, aspirin alone, data from several similar experiments pooled, read-out: ED50 and its 95 percent C.L.): 322 mg/kg
inhibition at 25 mg/kg (adjuvant arthritic rats [2]; Rattus norvegicus, bone degeneration, Aspirin 25 mg/kg/day alone, read-out: Percent Inhibition ± S. E.): 15.2 ± 12.6%
inhibition at 75 mg/kg (adjuvant arthritic rats [2]; Rattus norvegicus, bone degeneration, Aspirin 75 mg/kg/day alone, read-out: Percent Inhibition ± S. E.): 29.5 ± 5.6%
inhibition at 100 mg/kg (adjuvant arthritic rats [2]; Rattus norvegicus, bone degeneration, Aspirin 100 mg/kg/day alone, read-out: Percent Inhibition ± S. E.): 28.3 ± 8.2%
inhibition at 150 mg/kg (adjuvant arthritic rats [2]; Rattus norvegicus, bone degeneration, Aspirin 150 mg/kg/day alone, read-out: Percent Inhibition ± S. E.): 22.9 ± 3.1%
inhibition at 300 mg/kg (adjuvant arthritic rats [2]; Rattus norvegicus, bone degeneration, Aspirin 300 mg/kg/day alone, read-out: Percent Inhibition ± S. E.): 59.9 ± 5.4%
ED50 (adjuvant arthritic rats [2]; Rattus norvegicus): 382 mg/kg
Percent Inhibition ± S. E. (adjuvant arthritic rats [2]; bone degeneration, Aspirin 25 mg/kg/day alone): 20.1 ± 5.2%
